Laboratory results reported in patent publication EP0128651A2, “Pyranones and related compounds and methods for their production and use” (WARNER-LAMBERT COMPANY, priority 1983, dated 1984).
Values after ≈ are worked out from the molar mass of the structure shown. Marks after values point to notes of the source that are not given here.

Tests used:
L1210 Cells = test: Cytotoxicity against L1210 cells; format: cell-based; details: Mus musculus, read-out: ID50 (the source's name)
Mouse Melanoma B16 = test: Animal tumor screening, mouse melanoma B16; format: in vivo; parameters: key: -X= Borderline activity shown.; X= Activity shown. The initial endpoint is less stringent and is indicative of statistical significance.; XX= Outstanding activity shown and a proportion of "cures" produced. The stringent endpoint is indicative of sufficient antitumor selectivity to warrant consideration for development toward clinical trial.; No= No activity shown
Mouse Leukemia P3888 = test: Animal tumor screening, mouse leukemia P388; format: in vivo; parameters: key: -X= Borderline activity shown.; X= Activity shown. The initial endpoint is less stringent and is indicative of statistical significance.; XX= Outstanding activity shown and a proportion of "cures" produced. The stringent endpoint is indicative of sufficient antitumor selectivity to warrant consideration for development toward clinical trial.; No= No activity shown
Human Mammary Xenograft = test: Animal tumor screening, human mammary xenograft; format: in vivo; parameters: key: -X= Borderline activity shown.; X= Activity shown. The initial endpoint is less stringent and is indicative of statistical significance.; XX= Outstanding activity shown and a proportion of "cures" produced. The stringent endpoint is indicative of sufficient antitumor selectivity to warrant consideration for development toward clinical trial.; No= No activity shown
Mouse Mammary CD8F1 = test: Animal tumor screening, mouse mammary CD8F1; format: in vivo; parameters: key: -X= Borderline activity shown.; X= Activity shown. The initial endpoint is less stringent and is indicative of statistical significance.; XX= Outstanding activity shown and a proportion of "cures" produced. The stringent endpoint is indicative of sufficient antitumor selectivity to warrant consideration for development toward clinical trial.; No= No activity shown; details: treatment started 34 days after tumor implant (advanced-stage tumor)
Human Lung Xenograft = test: Animal tumor screening, human lung xenograft; format: in vivo; parameters: key: -X= Borderline activity shown.; X= Activity shown. The initial endpoint is less stringent and is indicative of statistical significance.; XX= Outstanding activity shown and a proportion of "cures" produced. The stringent endpoint is indicative of sufficient antitumor selectivity to warrant consideration for development toward clinical trial.; No= No activity shown
Mluse Lewis Lung = test: Animal tumor screening, mouse Lewis lung; format: in vivo; parameters: key: -X= Borderline activity shown.; X= Activity shown. The initial endpoint is less stringent and is indicative of statistical significance.; XX= Outstanding activity shown and a proportion of "cures" produced. The stringent endpoint is indicative of sufficient antitumor selectivity to warrant consideration for development toward clinical trial.; No= No activity shown
Mouse Colon 38 = test: Animal tumor screening, mouse colon 38; format: in vivo; parameters: key: -X= Borderline activity shown.; X= Activity shown. The initial endpoint is less stringent and is indicative of statistical significance.; XX= Outstanding activity shown and a proportion of "cures" produced. The stringent endpoint is indicative of sufficient antitumor selectivity to warrant consideration for development toward clinical trial.; No= No activity shown
Mouse Leukemia L1210 = test: Animal tumor screening, response of L1210 leukemia in mice; format: in vivo; parameters: key to Activiity: -X= Borderline activity shown.; X= Activity shown. The initial endpoint is less stringent and is indicative of statistical significance.; XX= Outstanding activity shown and a proportion of "cures" produced. The stringent endpoint is indicative of sufficient antitumor selectivity to warrant consideration for development toward clinical trial.; No= No activity shown; details: for T/C(%) / "Cures": Daily x 9

CC(=O)OCC=CC=CC=CC(CC(OP(=O)(O)O)C(C)(O)C=CC1CC=CC(=O)O1)OC(C)=O.[Na] (stereo not shown) [CL 1565-A Diacetate, Sodium Salt, 6-[6,13-Bis(acetyloxy)-3-hydroxy-3-methyl-4-(phosphonooxy)-1,7,9,11-tridecatetraenyl]-5,6-dihydro-2H-pyran-2-one, sodium salt]
IC50 (L1210 Cells): ~6 µg/mL

CC(O)(C=CC1CC=CC(=O)O1)C(O)CC(O)C=CC=CC=CCO (stereo not shown) [CL 1565-A alcohol, 5,6-Dihydro-6-(3,4,6,13-tetrahydroxy-3-methyl-l,7,9, 11-tridecatetraenyl)-2H-pyran-2-one]
IC50 (L1210 Cells): 2.5 µg/mL (≈ 7.13 µM)

CC(O)(C=CC1CC=CC(=O)O1)C(CC(O)C=CC=CC=CCO)OP(=O)(O)O (stereo not shown) [CL 1565-A, 5,6-dihydro-6-(3,6,13-trihydroxy-3-methyl-4-(phosphonooxy)-1,7,9,11-tridecatetraenyl)-2H-pyran-2-one]
Activiity (Mouse Melanoma B16): No | Activiity (Mouse Leukemia P3888): X | Activiity (Human Mammary Xenograft): -X | Activiity (Mouse Mammary CD8F1): Xa | Activiity (Human Lung Xenograft): No | Activiity (Mluse Lewis Lung): No | Activiity (Mouse Colon 38): X | Activiity (Mouse Leukemia L1210; Mouse Leukemia L1210): XX (curative) | T/C(%) (Mouse Leukemia L1210; Test 1, 6.25 mg/kg/dose): 207% | "Cures" (Mouse Leukemia L1210; Test 1, 6.25 mg/kg/dose, 30-day survivors are considered cures): 0/6^e | T/C(%) (Mouse Leukemia L1210; Test 2, 3.12 mg/kg/dose): 191% | "Cures" (Mouse Leukemia L1210; Test 2, 3.12 mg/kg/dose, survivors at completion of observation period): 0/6 | T/C(%) (Mouse Leukemia L1210; Test 2, 6.25 mg/kg/dose): 194% | "Cures" (Mouse Leukemia L1210; Test 2, 6.25 mg/kg/dose, survivors at completion of observation period): 1/6 | T/C(%) (Mouse Leukemia L1210; Test 2, 12.50 mg/kg/dose): 337% | "Cures" (Mouse Leukemia L1210; Test 2, 12.50 mg/kg/dose, survivors at completion of observation period): 3/6 | T/C(%) (Mouse Leukemia L1210; Test 3, 1.56 mg/kg/dose): 150% | "Cures" (Mouse Leukemia L1210; Test 3, 1.56 mg/kg/dose, survivors at completion of observation period): 0/6 | T/C(%) (Mouse Leukemia L1210; Test 3, 3.12 mg/kg/dose): 195% | "Cures" (Mouse Leukemia L1210; Test 3, 3.12 mg/kg/dose, survivors at completion of observation period): 0/6 | T/C(%) (Mouse Leukemia L1210; Test 3, 6.25 mg/kg/dose): 216% | "Cures" (Mouse Leukemia L1210; Test 3, 6.25 mg/kg/dose, survivors at completion of observation period): 0/6 | T/C(%) (Mouse Leukemia L1210; Test 3, 12.50 mg/kg/dose): 246% | "Cures" (Mouse Leukemia L1210; Test 3, 12.50 mg/kg/dose, 45-day observation period): 0/6^f | T/C(%) (Mouse Leukemia L1210; Test 4, 3.12 mg/kg/dose): 194% | "Cures" (Mouse Leukemia L1210; Test 4, 3.12 mg/kg/dose, survivors at completion of observation period): 0/6 | T/C(%) (Mouse Leukemia L1210; Test 4, 6.25 mg/kg/dose): 236% | "Cures" (Mouse Leukemia L1210; Test 4, 6.25 mg/kg/dose, survivors at completion of observation period): 1/6 | T/C(%) (Mouse Leukemia L1210; Test 4, 12.50 mg/kg/dose): 268% | "Cures" (Mouse Leukemia L1210; Test 4, 12.50 mg/kg/dose, survivors at completion of observation period): 0/6^g | curative effect in the L1210 tumor mouse model (Mouse Leukemia L1210; result in words): curative | survival period of mice inoculated with mouse leukemia L1210 (Mouse Leukemia L1210; result in words): significantly prolongs the survival period
